Measurements published in patent publication US20040234463A1, “Antimicrobial solution for both tropical and oral use” (Innovative Healthcare Products, Inc., priority 2002, published 2004).

Assays:
Assay in all cases: Titration of zones of inhibition of growth
Format in all cases: cell-based
Parameters in all cases: key: NI: No inhibition detected
Candida albicans = tested on: Candida albicans
Method: (§1) The present invention was tested against a commercially available denture cleanser and a 3% solution of H2O2 to test its effectiveness to inhibit growth of ten various target microorganisms commonly found in the human mouth. Included among the microorganisms were candida albicans, staphylococcus aureus, streptococcus sanguia, and fusobacterium nucleatum. Three samples of each microorganism were prepared for introduction of one of the various treatments—either, the present invention, a commercially-available denture cleanser, or a 3% solution of H2O2. The table blow partailly summarizes the results in terms of the titration of zones (in millimeters) of inhibition of growth.

Fusobacterium nucleatum = tested on: Fusobacterium nucleatum
Method: as §1

Staphylococcus aureus = tested on: Staphylococcus aureus
Method: as §1

Streptococcus sanguia = tested on: Streptococcus sanguia
Method: as §1

With `OO` [H2O2] the “zone of inhibition of growth” value (Candida albicans; dilution 1/16) was “NI”, the “zone of inhibition of growth” value (Candida albicans; dilution 1/32) was “NI” and the “zone of inhibition of growth” value (Candida albicans; dilution 1/64) was “NI”. For the same compound, the “zone of inhibition of growth” value (Candida albicans; dilution 1/128) was “NI”, the “zone of inhibition of growth” value (Candida albicans; dilution St.) was 5.5 millimeters and the “zone of inhibition of growth” value (Candida albicans; dilution ¼) was “NI”. The “zone of inhibition of growth” value (Candida albicans; dilution ½) was 5.0 millimeters, the “zone of inhibition of growth” value (Candida albicans; dilution ⅛) was “NI” and the “zone of inhibition of growth” value (Fusobacterium nucleatum; dilution 1/16) was “NI”. For the same compound, the “zone of inhibition of growth” value (Fusobacterium nucleatum; dilution 1/32) was “NI”, the “zone of inhibition of growth” value (Fusobacterium nucleatum; dilution 1/64) was “NI” and the “zone of inhibition of growth” value (Fusobacterium nucleatum; dilution 1/128) was “NI”. For the same compound, the “zone of inhibition of growth” value (Fusobacterium nucleatum; dilution St.) was 17.0 millimeters, the “zone of inhibition of growth” value (Fusobacterium nucleatum; dilution ¼) was 7.0 millimeters and the “zone of inhibition of growth” value (Fusobacterium nucleatum; dilution ½) was 13.0 millimeters. The “zone of inhibition of growth” value (Fusobacterium nucleatum; dilution ⅛) was 6.0 millimeters, the “zone of inhibition of growth” value (Staphylococcus aureus; dilution 1/16) was “NI” and the “zone of inhibition of growth” value (Staphylococcus aureus; dilution 1/32) was “NI”. The “zone of inhibition of growth” value (Staphylococcus aureus; dilution 1/64) was “NI”, the “zone of inhibition of growth” value (Staphylococcus aureus; dilution 1/128) was “NI” and the “zone of inhibition of growth” value (Staphylococcus aureus; dilution St.) was 10.0 millimeters. For the same compound, the “zone of inhibition of growth” value (Staphylococcus aureus; dilution ¼) was “NI”, the “zone of inhibition of growth” value (Staphylococcus aureus; dilution ½) was 5.0 millimeters and the “zone of inhibition of growth” value (Staphylococcus aureus; dilution ⅛) was “NI”. For the same compound, the “zone of inhibition of growth” value (Streptococcus sanguia; dilution 1/16) was “NI”, the “zone of inhibition of growth” value (Streptococcus sanguia; dilution 1/32) was “NI” and the “zone of inhibition of growth” value (Streptococcus sanguia; dilution 1/64) was “NI”. The “zone of inhibition of growth” value (Streptococcus sanguia; dilution 1/128) was “NI”, the “zone of inhibition of growth” value (Streptococcus sanguia; dilution St.) was 10.0 millimeters and the “zone of inhibition of growth” value (Streptococcus sanguia; dilution ¼) was “NI”. For the same compound, the “zone of inhibition of growth” value (Streptococcus sanguia; dilution ½) was 6.5 millimeters and the “zone of inhibition of growth” value (Streptococcus sanguia; dilution ⅛) was “NI”.
